In US11358957B2, “Microbiocidal oxadiazole derivatives” (SYNGENTA PARTICIPATIONS AG, priority 2017, dated 2022) one finds pest or weed control, melting point and inhibition of growth data, which are given here for eight compounds.

The subject of one data set is Phakopsora pachyrhizi. Put plainly: Fungicidal activity against Phakopsora pachyrhizi / soybean / leaf disc preventative (Asian soybean rust). As to conditions: foliar, 200 ppm in the applied formulation, soybean leaf disks, compared to untreated, read-out: disease control. The format is in vivo. Here is the method:
Leaf disks or leaf segments of various plant species are cut from plants grown in a greenhouse. The cut leaf disks or segments are placed in multiwell plates (24-well format) onto water agar. The leaf disks are sprayed with a test solution before (preventative) or after (curative) inoculation. Compounds to be tested are prepared as DMSO solutions (max. 10 mg/mL) which are diluted to the appropriate concentration with 0.025% Tween20 just before spraying. The inoculated leaf disks or segments are incubated under defined conditions (temperature, relative humidity, light, etc.) according to the respective test system. A single evaluation of disease level is carried out 3 to 14 days after inoculation, depending on the pathosystem. Percent disease control relative to the untreated check leaf disks or segments is then calculated. Soybean leaf disks are placed on water agar in multiwell plates (24-well format) and sprayed with the formulated test compound diluted in water. One day after application leaf discs are inoculated by spraying a spore suspension on the lower leaf surface. After an incubation period in a climate cabinet of 24-36 hours in darkness at 20° C. and 75% rh leaf disc are kept at 20° C. with 12 h light/day and 75% rh. The activity of a compound is assessed as percent disease control compared to untreated when an appropriate level of disease damage appears in untreated check leaf disks (12 to 14 days after application). The following compounds at 200 ppm in the applied formulation give at least 80% disease control in this test when compared to untreated control leaf disks under the same conditions, which show extensive disease development.

Data set [1] deals with Puccinia recondita f. Sp. Tritici. The data set can be described thus: Fungicidal activity against Puccinia recondita f. sp. tritici / wheat / leaf disc preventative (brown rust). The conditions noted are these: foliar, 200 ppm in the applied formulation, wheat leaf segments cv. Kanzler, preventative (inoculated 1 day after application), compared to untreated, read-out: disease control. The class given is in vivo. In a few lines: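 Segments of wheat cv. Kanzler on water agar were sprayed with compound and inoculated with spores 1 day later. They were kept at 19 °C, 75% rh and 12 h light/12 h dark. Percent disease control versus untreated was scored 7–9 days after application; compounds were tested at 200 ppm.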

Data set [2] relates to Glomerella lagenarium (Colletotrichum lagenarium). Put plainly: Fungicidal activity against Glomerella lagenarium (Colletotrichum lagenarium) liquid culture / cucumber / preventative (anthracnose). As to conditions: Colletotrichum orbiculare; 20 ppm in the applied formulation; liquid culture (PDB), inhibition of growth measured photometrically 3 to 4 days after application; compared to untreated; read-out: disease control. The class given is cell-based. In a few lines: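 Conidia from cryogenic storage mixed into potato dextrose broth and added to compound in DMSO in microtiter plates. Incubated at 24° C.; growth inhibition read photometrically 3 to 4 days after application. Disease control expressed relative to untreated control, with compound at 20 ppm in the applied formulation.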

For data set [3], the system named is Puccinia recondita f. Sp. Tritici. The data set can be described thus: Fungicidal activity against Puccinia recondita f. sp. tritici / wheat / leaf disc curative (brown rust). The format is in vivo. As to conditions: foliar, 24 h, 200 ppm in the applied formulation, wheat leaf segments cv. Kanzler, curative (applied 1 day after inoculation), compared to untreated, read-out: disease control. In a few lines:
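Wheat leaf segments (cv. Kanzler) on agar were inoculated with brown rust spores, kept dark at 19 °C and 75% RH, then sprayed 1 day later with compound (DMSO stock diluted in 0.025% Tween20). Under 12 h light/12 h dark at 19 °C, percent disease control versus untreated was scored 6–8 days after application; 200 ppm applied.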

Regarding `CN(C)C(=O)c1ccn(Cc2ccc(-c3noc(C(F)(F)F)n3)s2)n1` [Compound 1.57, N,N-dimethyl-1-[[5-[5-(trifluoromethyl)-1,2,4-oxadiazol-3-yl]-2-thienyl]methyl]pyrazole-3-carboxamide], the melting point lay in the range of 90 to 96 °C. Also, the pest or weed control at 200 ppm in the data set with Phakopsora pachyrhizi was ≥ 80%. In addition, the pest or weed control at 200 ppm in data set [1] was ≥ 80%. The inhibition of growth at 20 ppm in data set [2] was ≥ 80%. Moreover, the pest or weed control at 200 ppm in data set [3] was ≥ 80%.

In the case of `CONC(=O)c1ccn(Cc2ccc(-c3noc(C(F)(F)F)n3)s2)n1` [Compound 1.56, N-methoxy-1-[[5-[5-(trifluoromethyl)-1,2,4-oxadiazol-3-yl]-2-thienyl]methyl]pyrazole-3-carboxamide], the melting point is 134 to 141 °C. Further, in the data set with Phakopsora pachyrhizi, the pest or weed control at 200 ppm was ≥ 80%. In data set [1], the pest or weed control at 200 ppm was ≥ 80%. Moreover, in data set [2], the inhibition of growth at 20 ppm was ≥ 80%. The pest or weed control at 200 ppm in data set [3] is ≥ 80%.

The compound `CNC(=O)c1ccn(Cc2ccc(-c3noc(C(F)(F)F)n3)s2)n1` [Compound 1.51, N-methyl-1-[[5-[5-(trifluoromethyl)-1,2,4-oxadiazol-3-yl]-2-thienyl]methyl]pyrazole-3-carboxamide] gave a melting point of 124 to 126 °C. The pest or weed control at 200 ppm in the data set on Phakopsora pachyrhizi is ≥ 80%. In addition, the pest or weed control at 200 ppm in data set [1] is ≥ 80%. Further, the inhibition of growth at 20 ppm in data set [2] was ≥ 80%. Further, in data set [3], the pest or weed control at 200 ppm is ≥ 80%.

Turning to `CCCOC(=O)c1ccn(Cc2ccc(-c3noc(C(F)(F)F)n3)s2)n1` [Compound 1.46, propyl 1-[[5-[5-(trifluoromethyl)-1,2,4-oxadiazol-3-yl]-2-thienyl]methyl]pyrazole-3-carboxylate], the melting point is 88 to 94 °C. Besides, the pest or weed control at 200 ppm in the data set with Phakopsora pachyrhizi was ≥ 80%. In addition, the pest or weed control at 200 ppm in data set [1] was ≥ 80%. The inhibition of growth at 20 ppm in data set [2] was ≥ 80%. Moreover, the pest or weed control at 200 ppm in data set [3] was ≥ 80%.

`COCCNC(=O)c1cnn(Cc2ccc(-c3noc(C(F)(F)F)n3)s2)c1` [Compound 1.39, N-(2-methoxyethyl)-1-[[5-[5-(trifluoromethyl)-1,2,4-oxadiazol-3-yl]-2-thienyl]methyl]pyrazole-4-carboxamide] yielded a melting point of 135.3 to 137.9 °C. For the same compound, in the data set on Phakopsora pachyrhizi, the pest or weed control at 200 ppm was ≥ 80%. The pest or weed control at 200 ppm in data set [1] is ≥ 80%. For the same compound, in data set [2], the inhibition of growth at 20 ppm is ≥ 80%. For the same compound, the pest or weed control at 200 ppm in data set [3] was ≥ 80%.

As for `CONC(=O)c1ccnn1Cc1ccc(-c2noc(C(F)(F)F)n2)s1` [Compound 1.60, N-methoxy-2-[[5-[5-(trifluoromethyl)-1,2,4-oxadiazol-3-yl]-2-thienyl]methyl]pyrazole-3-carboxamide], the melting point fell in the range of 105 to 115 °C. Moreover, the pest or weed control at 200 ppm with Phakopsora pachyrhizi is ≥ 80%. Further, the pest or weed control at 200 ppm in data set [1] was ≥ 80%. Further, the inhibition of growth at 20 ppm in data set [2] was ≥ 80%. The pest or weed control at 200 ppm in data set [3] was ≥ 80%.

For the compound `CN(C)c1ncn(Cc2ccc(-c3noc(C(F)(F)F)n3)s2)n1` [Compound 1.4, N,N-dimethyl-1-[[5-[5-(trifluoromethyl)-1,2,4-oxadiazol-3-yl]-2-thienyl]methyl]-1,2,4-triazol-3-amine], the melting point lay in the range of 113 to 116 °C. The pest or weed control at 200 ppm with Phakopsora pachyrhizi is ≥ 80%. Further, the pest or weed control at 200 ppm in data set [1] is ≥ 80%. Besides, the inhibition of growth at 20 ppm in data set [2] is ≥ 80%. Besides, in data set [3], the pest or weed control at 200 ppm is ≥ 80%.

The compound `CCCOC(=O)c1ncn(Cc2ccc(-c3noc(C(F)(F)F)n3)s2)n1` [Compound 1.43, propyl 1-[[5-[5-(trifluoromethyl)-1,2,4-oxadiazol-3-yl]-2-thienyl]methyl]-1,2,4-triazole-3-carboxylate] registered a melting point of 140 to 160 °C. Moreover, the pest or weed control at 200 ppm in the data set with Phakopsora pachyrhizi was ≥ 80%. For the same compound, the pest or weed control at 200 ppm in data set [1] is ≥ 80%. Besides, the inhibition of growth at 20 ppm in data set [2] was ≥ 80%. For the same compound, the pest or weed control at 200 ppm in data set [3] is ≥ 80%.
